Test results reported in patent publication US20200384007A1, “LIPID NANOPARTICLES CONTAINING PHARMACEUTICAL AND/OR NUTRACEUTICAL AGENTS AND METHODS THEREOF” (Board of Regents, The University of Texas System, priority 2019, published 2020).
Where two headings read alike, the source gives them in different places.

Columns and labels:
[1] = Physical and chemical stability as lyophilized powder or dry waxy solid at room temperature; assay type: physicochemical; settings: DHA-dFdC-vitamin E (5.047% w/w) waxy solid mixture, 14 days
Method: A 30% (w/v) stock solution of sucrose as lyoprotectant was prepared with de-ionized and filtered (0.2 μm) water. 900 μL DHA-dFdC-SLNs in water suspension was mixed with 100 μL sucrose solution to obtain a final suspension having 3% (w/v) sucrose. DHA-dFdC-SLNs in suspension were stored at −20° C. for 30 min, transferred to −80° C. for 60 min, and finally transferred to a VirTis Advantage bench top tray lyophilizer (The VirTis Company, Inc. Gardiner, N.Y.). Lyophilization was performed over 72 hours (h) at pressure less than 200 mTorr under nitrogen atmosphere. The shelf temperature was gradually ramped from −40° C. to 26° C. After lyophilization, samples were sealed and stored in a desiccator at room temperature, protected from light.
To evaluate the physical and chemical stability of DHA-dFdC-SLNs in lyophilized powder, DHA-dFdC was extracted from the powder 0, 7, and 30 days post-storage. Lyophilized samples were reconstituted in 1 mL de-ionized and filtered (0.2 μm) water. […] The sample was re-dissolved in 100 μL of THF, and concentration was measured by HPLC.
As a control, DHA-dFdC was dissolved in ethanol and mixed with vitamin E at a final concentration of 5.047% (w/w) (Naguib et al., Neoplasia, 2016; 18(1):33-48). The solution was dried under nitrogen, sealed, and stored at room temperature, protected from light, and the content of DHA-dFdC was measured at various time points

B16-F10 cells = assay: In vitro cytotoxicity assay (MTT); assay type: cell-based, murine; settings: Mus musculus, B16F10 cells, 48 h of incubation
Method: (§1) Cytotoxicity of DHA-dFdC-SLNs was evaluated in TC-1, B16-F10, and M-Wnt cells. Cells were seeded into 96-well plates (4000 cells/well for TC-1 and B16-F10 cells, 1000 cells/well for M-Wnt cells) and incubated at 37° C., 5% CO2 overnight. Cells were treated with various concentrations of DHA-dFdC, DHA-dFdC-SLNs, DHA-dFdC-free SLNs, or dimethyl sulfoxide (DMSO) for up to 48 h. As a control, cells were treated with fresh medium. Cell survival was determined using an MTT assay (Naguib et al., Mol. Pharma., 2014; 11(4):1239-1249). DHA-dFdC was dissolved in DMSO and diluted with cell culture media, whereas DHA-dFdC-SLNs and DHA-dFdC-free SLNs were dispersed directly in cell culture media.

M-Wnt cells = assay: In vitro cytotoxicity assay (MTT); assay type: cell-based, murine; settings: Mus musculus, 24 h of incubation
Method: as §1

B16-F10 tumors [2] = assay: Antitumor activity of i.v. DHA-dFdC-SLNs in a mouse model; assay type: in vivo; settings: 50 mg/kg DHA-dFdC on days 7, 10, 13, 16
Method: Female C57BL/6 mice (18-20 g, 6-8 weeks) were subcutaneously (s.c.) injected with B16-F10 (5×10^5 cells/mouse) in the right flank on day 0. Seven days later, mice were randomized in 5 groups (n=5-6) and i.v. injected with DHA-dFdC (1 mg/mouse, equivalent to 50 mg/kg) dissolved a vehicle solution (Tween 80 (10%, w/v), ethanol (5.2%, v/v), and mannitol (5%, w/v) in water), the vehicle solution (as a control) (Naguib et al., Neoplasia, 2016; 18(1):33-48; Valdes et al., Pharma. Res., 2017; 34(6):1224-1232), DHA-dFdC-SLNs (equivalent to 1 mg of DHA-dFdC/mouse), or the equivalent dose of DHA-dFdC-free SLNs; both SLNs were dispersed in sterile mannitol 5%, (w/v). As a control, one group of mice were left untreated. Treatments were repeated every 3 days for a total of 4 times. Mouse health and tumor growth were monitored daily. Tumor size was measured 2-3 times a week, and tumor volume was calculated as: volume (mm^3)=(length×width^2)/2. Mice were euthanized 17 days after B16-F10 cell injection, and tumor tissues were collected for histology study. For untreated mice, the length of some of the tumors reached 15 mm before day 17 and had to be euthanized earlier.

B16-F10 tumors [3] = assay: Histology (H&E) of tumor tissues; assay type: in vivo, C57BL/6 mice; settings: tumors collected on day 17 after i.v. treatment
Excerpt: Tumor tissues were fixed in formalin, embedded, and stained with hematoxylin and eosin (H&E) in the Histological and Tissue Analysis Facility in the Dell Pediatric Research Institute at The University of Texas at Austin.

[4] = Pharmacokinetic studies, oral and i.v. (Example 2); assay type: in vivo, C57BL/6 mice
Method: The Institutional Animal Care and Use Committee at The University of Texas at Austin approved the animal protocol. Female C57BL/6 mice (6-8 weeks, Charles River Laboratories, Wilmington, Mass.) were fasted for 3 h. Water was allowed ad libitum. Mice were orally gavaged with DHA-dFdC dissolved in a vehicle solution (Tween 80 (10%, w/v), ethanol (5.2% v/v), and mannitol (5%, w/v) in sterile water) (Naguib, et al., Neoplasia, 2016, 18, (1), 33-48; Valdes, et al., Pharma. Res., 2017, 34, (6), 1224-1232) or the DHA-dFdC-SLNs suspended in a sterile mannitol solution (5%, w/v), or intravenously injected with the DHA-dFdC-SLNs suspended in a sterile mannitol solution (5%, w/v). The dose of DHA-dFdC was 2 mg per mouse. Mice (n=3) were euthanized at various time points (e.g., 0.25, 0.5, 1, 2, 5, 8, 12, and 24 h). Blood was collected into heparin-coated tubes, which were then centrifuged at 13,000 rcf for 20 min to isolate plasma. The plasma (200 μL) was mixed with 200 μL of isopropanol and 200 μL of cold PBS, vortexed and then incubated at 4° C. for 5 min Following incubation, 1000 μl of ethyl acetate was added. The mixture was vortexed for 5 min, followed by centrifugation at 18,000 rcf for 5 min. The supernatant was collected and dried under nitrogen. Finally, the residue was re-dissolved in 100 μl of THF, which was then analyzed using HPLC (Naguib, et al., Neoplasia, 2016, 18, (1), 33-48). As internal control 4-(N)-stearoyl 2′,2′-difluorodeoxycytidine (GemC18) was added in the samples before extraction (Sloat, et al., Intl. J. Pharma., 2011, 409, (1), 278-288). Data were analyzed using PK Solver®, assuming a two-compartmental model (Wang, et al., Oncotarget, 2017, 8, (52), 89876).

B16-F10 tumors [5] = assay: Antitumor activity of orally administered DHA-dFdC-SLNs in tumor-bearing mice (survival); assay type: in vivo; settings: oral gavage
Method: Female C57BL/6 mice (18-20 g) were subcutaneously (s.c) injected with B16-F10 (5×10^5 cells/mouse) in the right flank on day 0. Seven days later, mice were randomized into 4 groups (n=7-8) and orally gavaged with DHA-dFdC (250 μg/mouse) dissolved in vehicle (Naguib, et al., Neoplasia, 2016, 18, (1), 33-48; Valdes, et al., Pharma. Res., 2017, 34, (6), 1224-1232), DHA-dFdC-SLNs (250 μg/mouse of DHA) dispersed in mannitol 5%, or DHA-dFdC-free SLNs dispersed in mannitol 5%. As a control, one group of mice were left untreated. Treatment was repeated every day until day 11. Mice were allowed to rest for two days, and treatment was resumed on day 13 and continued until day 20. Mice were monitored daily until the endpoint (e.g., death, tumor size reaching 15 mm, tumor ulceration, body weight loss of more than 20%, or other signs of severe distress and discomfort).

[6] = in water; cited from earlier work
[7] = in an aqueous solution, DBA/2 mice; cited from earlier work
[8] = system: NCI-60 DTP human tumor cell lines; settings: cited from earlier work
pancreatic tumor = settings: several mouse models of pancreatic cancer; cited from earlier work
[9] = oral administration, 2 mg DHA-dFdC per mouse

## CC/C=C\C/C=C\C/C=C\C/C=C\C/C=C\C/C=C\CCC(=O)Nc1ccn(C2OC(CO)C(O)C2(F)F)c(=O)n1 (stereo not shown) [DHA-dFdC, 4-(N)-docosahexaenoyl 2′, 2′-difluorodeoxycytidine]
[1]
  DHA-dFdC left after storage: 19.1%±7.0
B16-F10 cells
  IC50: 1810 nM
M-Wnt cells
  IC50: 2150 nM
B16-F10 tumors [2]
  tumor growth delay: 4 days
  tumor size / control of tumor growth versus comparison groups: no significant difference
B16-F10 tumors [3]
  H&E histology findings in tumors: vascular collapse, high desmoplasia, and necrotic areas
[4]; female, C57BL/6, mouse, plasma, 2 mg per mouse, oral, in Tween 80/ethanol/water solution
  bioavailability: 54%
[4]; female, C57BL/6, mouse, plasma, po, 2 mg, oral administration, 2 mg DHA-dFdC per mouse, read-out: Tmax
  Tmax: 1.7 h
[4]; female, C57BL/6, plasma, oral administration, 2 mg DHA-dFdC per mouse
  Cmax: 10500 ng/mL
[4]; female, C57BL/6, plasma, oral administration, 2 mg DHA-dFdC per mouse, read-out: AUC 0-24
  AUC(0-t): 114 µg·h/mL
[4]; [9]
  T1/2α: 1.07 h
  Tmax: 1.75 h
  k12: 0.56 h⁻¹
B16-F10 tumors [5]; 250 μg DHA-dFdC per mouse daily for 12 days
  survival compared to untreated mice: did not significantly affect mouse survival
B16-F10 tumors [5]; in Tween 80/ethanol/water solution, 250 μg per mouse daily
  mice showing signs of toxicity (body weight decrease of more than 20% or severe tumor ulceration): 62.5%
[6]
  intrinsic solubility: ~25 µg/mL
[7]
  repeat dose-maximum tolerated dose: 50 mg/kg
[8]
  antitumor activity: potent and broad spectrum antitumor activity
Pancreatic tumor
  control of pancreatic tumor growth versus gemcitabine: significantly more effective than the molar equivalent dose of gemcitabine
